Results as given in patent publication EP0687685A1, “PHYSIOLOGICALLY ACTIVE PEPTIDE” (TEIJIN LIMITED, priority 1993, dated 1994).
Positions of bridges follow the written chain, without caps; N, C: chain ends. Residues, ends and D or L forms follow the SMILES beside them. Chains are numbered I, II in the order given. *: point of attachment. Mob = COc1ccc(C*)cc1; Acm = CC(=O)NC*

Key:
[1] = molecular target: T1, human type II PLA₂ (Homo sapiens, UniProt P14555); assay: Enzyme inhibition of human type II PLA₂ in the presence of heparin, radiolabeled synthetic phospholipid (method of Dole); assay type: biochemical; conditions: PLA₂ enzyme 200 ng/ml; for inhibition at 5 µg/mL / remaining activity at 5 µg/mL: peptide 5 µg/ml; for inhibition at 10 µg/mL / remaining activity at 10 µg/mL: peptide 10 µg/ml; for inhibition at 50 µg/mL / remaining activity at 50 µg/mL: peptide 50 µg/ml; for inhibition at 100 µg/mL / remaining activity at 100 µg/mL: peptide 100 µg/ml
T1 construct: made in house; host or cells: Sf9 insect cells, baculovirus (AcNPV), vector pAcTJI1; purified from culture supernatant
T1 sequence (P14555 21-144): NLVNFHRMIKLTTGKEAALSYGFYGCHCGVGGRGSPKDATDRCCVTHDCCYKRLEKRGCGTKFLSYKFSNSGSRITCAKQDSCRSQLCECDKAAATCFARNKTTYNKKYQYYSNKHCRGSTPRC

[2] = molecular target: T1, human type II PLA₂; assay: Inhibition of binding between heparin and human II-type PLA₂ (heparin-bound plate, biotinated PLA₂)
Experimental: 500 µg of human type II (non-pancreatic) purified in Reference Example 1 was reacted with 2 ml of a solution of 5 mM sulfosuccinyl 6-(biotinamide hexose) in 0.1M NaHCO₃ at a room temperature for one hour, and the product was purified by a heparin Sepharose column to obtain biotinated human type II PLA₂.
50 µl of a phosphate buffered saline (PBS) containing 50 µg/ml poly-L-lysine was added to each well of a 96-well ELISA plate, and after incubation at room temperature for an hour, each well was twice washed with PBS, 50 µl of PBS solution containing 20 µg/ml heparin was added to each well, and a reaction was further carried out at a room temperature for an hour. Each well was twice washed with PBS, 200 µl of PBS solution containing 30 mg/ml bovine serum albumin (BSA) was added to each well, and after reaction at 37°C for an hour, the plate was stored at 4°C.
To each well of a peparin-bound plate prepared in Reference Example 3, 50 µl of a solution containing a peptide obtained in Examples 1 to 10 was added. After incubating at room temperature for 45 minutes, 50 µg/ml biotinated human II-type PLA₂ obtained in Example 2 was added thereon, and reaction was further carried out at room temperature for an hour. Each well was washed three times with PBS containing 0.05% Tween 20, 50 µl of a 3% BSA/PBS solution containing alkaline phosphatase-conjugated streptoavidin (Taga, ×2000 dilution) was added thereon, and a reaction was carried out at a room temperature for an hour. Each well was washed three times with PBS containing 0.05% Tween 20, 100 µl of a 1 mM p-nitrophenylphosphate/1M ethanolamine aqueous solution (pH 9.8) was added thereon, and a reaction was carried out at room temperature for an hour. Absorption of reaction mixture was measured at 405 nm using a microplate reader (Molecular Device Inc). A result is shown in Fig. 9, and IC₅₀ (µM) was also obtained.

[3] = molecular target: T1, human type II PLA₂; assay: Enzyme inhibition of human type II PLA₂ in the presence of heparin, radioactive phospholipid of E. coli origin; assay type: biochemical; conditions: heparin 10 µg/ml, PLA₂ enzyme 10 ng/ml
[4] = heparin 10 µg/ml, read-out: PLA₂enzyme activity (%)
[5] = heparin 50 µg/ml, read-out: PLA₂enzyme activity (%)

| Structure (SMILES) | inhibition at 5 µg/mL ([1]; heparin 50 µg/ml) | remaining activity at 5 µg/mL [1, 5] | inhibition at 10 µg/mL ([1]; heparin 50 µg/ml) | remaining activity at 10 µg/mL [1, 5] | inhibition at 50 µg/mL ([1]; heparin 50 µg/ml) | remaining activity at 50 µg/mL [1, 5] | inhibition at 100 µg/mL ([1]; heparin 50 µg/ml) | remaining activity at 100 µg/mL [1, 5] | also measured |
| --- | --- | --- | --- | --- | --- | --- | --- | --- | --- |
| CC(C)C[C@@H]1NC(=O)[C@H](Cc2ccccc2)NC(=O)[C@H](CCCCN)NC(=O)[C@H]([C@@H](C)O)NC(=O)CNC(=O)[C@@H](NC(=O)CNC(=O)[C@H](CCCNC(=N)N)NC(=O)[C@@H](N)CCCCN)CSSC[C@@H](C(=O)O)NC(=O)[C@H](CO)NC(=O)[C@H](Cc2ccccc2)NC(=O)[C@H](CCCCN)NC(=O)[C@H](Cc2ccc(O)cc2)NC(=O)[C@H](CO)NC(=O)[C@H](CC(C)C)NC(=O)[C@H](Cc2ccccc2)NC(=O)[C@H](CCCCN)NC(=O)[C@H]([C@@H](C)O)NC(=O)CNC(=O)[C@@H](NC(=O)CNC(=O)[C@H](CCCNC(=N)N)NC(=O)[C@@H](N)CCCCN)CSSC[C@@H](C(=O)O)NC(=O)[C@H](CO)NC(=O)[C@H](Cc2ccccc2)NC(=O)[C@H](CCCCN)NC(=O)[C@H](Cc2ccc(O)cc2)NC(=O)[C@H](CO)NC1=O [Peptide (17)] (I: H-KRGCGTKFLSYKFSC-OH / II: H-KRGCGTKFLSYKFSC-OH; disulfide I:4-II:15, I:15-II:4) | – | – | – | – | – | – | – | – | inhibition at 1 µg/mL ([1]; peptide 1 µg/ml, heparin 10 µg/ml): 69%; remaining activity at 1 µg/mL ([1]; peptide 1 µg/ml, heparin 10 µg/ml, read-out: PLA₂enzyme activity (%)): 31%; inhibition at 5 µg/mL ([1]; heparin 10 µg/ml): 91%; remaining activity at 5 µg/mL [1, 4]: 9%; inhibition at 10 µg/mL ([1]; heparin 10 µg/ml): 94%; remaining activity at 10 µg/mL [1, 4]: 6% |
| COc1ccc(CSC[C@H](NC(=O)CNC(=O)[C@H](CCCNC(=N)N)NC(=O)[C@@H](N)CCCCN)C(=O)NCC(=O)N[C@H](C(=O)N[C@@H](CCCCN)C(=O)N[C@@H](Cc2ccccc2)C(=O)N[C@@H](CC(C)C)C(=O)N[C@@H](CO)C(=O)N[C@@H](Cc2ccc(O)cc2)C(=O)N[C@@H](CCCCN)C(=O)N[C@@H](Cc2ccccc2)C(=O)N[C@@H](CO)C(=O)N[C@@H](CS)C(=O)O)[C@@H](C)O)cc1 [Peptide (6)] (H-KRGC(Mob)GTKFLSYKFSC-OH; N-terminus and C-terminus assumed) | – | – | – | – | – | – | – | – | inhibitory activity to binding of human type II PLA₂ to heparin [2]: strong inhibitory activity |
| COc1ccc(CSC[C@H](NC(=O)CNC(=O)[C@H](CCCNC(=N)N)NC(=O)[C@@H](N)CCCCN)C(=O)NCC(=O)N[C@H](C(=O)N[C@@H](CCCCN)C(=O)N[C@@H](Cc2ccccc2)C(=O)N[C@@H](CC(C)C)C(=O)N[C@@H](CO)C(=O)N[C@@H](Cc2ccc(O)cc2)C(=O)N[C@@H](CCCCN)C(=O)N[C@@H](Cc2ccccc2)C(=O)N[C@@H](CO)C(=O)N[C@@H](CSSC[C@H](NC(=O)[C@H](CO)NC(=O)[C@H](Cc2ccccc2)NC(=O)[C@H](CCCCN)NC(=O)[C@H](Cc2ccc(O)cc2)NC(=O)[C@H](CO)NC(=O)[C@H](CC(C)C)NC(=O)[C@H](Cc2ccccc2)NC(=O)[C@H](CCCCN)NC(=O)[C@@H](NC(=O)CNC(=O)[C@H](CSCc2ccc(OC)cc2)NC(=O)CNC(=O)[C@H](CCCNC(=N)N)NC(=O)[C@@H](N)CCCCN)[C@@H](C)O)C(=O)O)C(=O)O)[C@@H](C)O)cc1 [Peptide (2)] (I: H-KRGC(Mob)GTKFLSYKFSC-OH / II: H-KRGC(Mob)GTKFLSYKFSC-OH; disulfide I:15-II:15) | 25% | 75% | 52% | 48% | 81% | 19% | 89% | 11% | – |
| CC(=O)NCSC[C@H](NC(=O)CNC(=O)[C@H](CCCNC(=N)N)NC(=O)[C@@H](N)CCCCN)C(=O)NCC(=O)N[C@H](C(=O)N[C@@H](CCCCN)C(=O)N[C@@H](Cc1ccccc1)C(=O)N[C@@H](CC(C)C)C(=O)N[C@@H](CO)C(=O)N[C@@H](Cc1ccc(O)cc1)C(=O)N[C@@H](CCCCN)C(=O)N[C@@H](Cc1ccccc1)C(=O)N[C@@H](CO)C(=O)N[C@@H](CSSC[C@H](NC(=O)[C@H](CO)NC(=O)[C@H](Cc1ccccc1)NC(=O)[C@H](CCCCN)NC(=O)[C@H](Cc1ccc(O)cc1)NC(=O)[C@H](CO)NC(=O)[C@H](CC(C)C)NC(=O)[C@H](Cc1ccccc1)NC(=O)[C@H](CCCCN)NC(=O)[C@@H](NC(=O)CNC(=O)[C@H](CSCNC(C)=O)NC(=O)CNC(=O)[C@H](CCCNC(=N)N)NC(=O)[C@@H](N)CCCCN)[C@@H](C)O)C(=O)O)C(=O)O)[C@@H](C)O [Peptide (11)] (I: H-KRGC(Acm)GTKFLSYKFSC-OH / II: H-KRGC(Acm)GTKFLSYKFSC-OH; disulfide I:15-II:15) | 43% | 57% | 63% | 37% | 78% | 22% | 82% | 18% | – |
| CC(=O)NCSC[C@H](NC(=O)[C@H](CO)NC(=O)[C@H](Cc1ccccc1)NC(=O)[C@H](CCCCN)NC(=O)[C@H](Cc1ccc(O)cc1)NC(=O)[C@H](CO)NC(=O)[C@H](CC(C)C)NC(=O)[C@H](Cc1ccccc1)NC(=O)[C@H](CCCCN)NC(=O)[C@@H](NC(=O)CNC(=O)[C@H](CSSC[C@H](NC(=O)CNC(=O)[C@H](CCCNC(=N)N)NC(=O)[C@@H](N)CCCCN)C(=O)NCC(=O)N[C@H](C(=O)N[C@@H](CCCCN)C(=O)N[C@@H](Cc1ccccc1)C(=O)N[C@@H](CC(C)C)C(=O)N[C@@H](CO)C(=O)N[C@@H](Cc1ccc(O)cc1)C(=O)N[C@@H](CCCCN)C(=O)N[C@@H](Cc1ccccc1)C(=O)N[C@@H](CO)C(=O)N[C@@H](CSCNC(C)=O)C(=O)O)[C@@H](C)O)NC(=O)CNC(=O)[C@H](CCCNC(=N)N)NC(=O)[C@@H](N)CCCCN)[C@@H](C)O)C(=O)O [Peptide (13)] (I: H-KRGCGTKFLSYKFSC(Acm)-OH / II: H-KRGCGTKFLSYKFSC(Acm)-OH; disulfide I:4-II:4) | 42% | 58% | 62% | 38% | 81% | 19% | 86% | 14% | – |
| CC(C)C[C@@H]1NC(=O)[C@H](Cc2ccccc2)NC(=O)[C@H](CCCCN)NC(=O)[C@H]([C@@H](C)O)NC(=O)CNC(=O)[C@@H](NC(=O)CNC(=O)[C@H](CCCNC(=N)N)NC(=O)[C@@H](N)CCCCN)CSSC[C@H](NC(=O)CNC(=O)[C@H](CCCNC(=N)N)NC(=O)[C@@H](N)CCCCN)C(=O)NCC(=O)N[C@@H]([C@@H](C)O)C(=O)N[C@@H](CCCCN)C(=O)N[C@@H](Cc2ccccc2)C(=O)N[C@@H](CC(C)C)C(=O)N[C@@H](CO)C(=O)N[C@@H](Cc2ccc(O)cc2)C(=O)N[C@@H](CCCCN)C(=O)N[C@@H](Cc2ccccc2)C(=O)N[C@@H](CO)C(=O)N[C@H](C(=O)O)CSSC[C@@H](C(=O)O)NC(=O)[C@H](CO)NC(=O)[C@H](Cc2ccccc2)NC(=O)[C@H](CCCCN)NC(=O)[C@H](Cc2ccc(O)cc2)NC(=O)[C@H](CO)NC1=O [Peptide (16)] (I: H-KRGCGTKFLSYKFSC-OH / II: H-KRGCGTKFLSYKFSC-OH; disulfide I:4-II:4, I:15-II:15) | 59% | 41% | 72% | 28% | 82% | 18% | 90% | 10% | inhibition at 1 µg/mL ([3]; peptide 1 µg/ml): 88%; remaining activity at 1 µg/mL ([3]; peptide 1 µg/ml): 12%; inhibition at 5 µg/mL ([3]; peptide 5 µg/ml): 97%; remaining activity at 5 µg/mL ([3]; peptide 5 µg/ml): 3%; inhibition at 10 µg/mL ([3]; peptide 10 µg/ml): 98%; remaining activity at 10 µg/mL ([3]; peptide 10 µg/ml): 2% |
